Test results taken from patent EP2818472A1, “Imidazo[4,5-c]pyridine and pyrrolo[3,2-c]pyridine compounds as G-protein-coupled receptor kinase 5 (GRK5) modulators” (Max-Planck-Gesellschaft zur Förderung der Wissenschaften …, priority 2013, dated 2014).

Tested on: beta-TC6 cells
Assay: Insulin HTRF assay (relative activity Ar) in beta-TC6 cells
Assay type: cell-based, mouse
Conditions: Mus musculus, Beta-TC6, 4 h, insulin HTRF, supernatant of beta-TC6 cells, incubation with test compound at 37°C for 2, 3, 4h; read-out: Ar (relative activity)
Summary of the method: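 beta-TC6 cells (15k/well, seeded 24 or 48 h) washed, then exposed to compound in induction buffer (0.5% DMSO final) for 2, 3 or 4 h at 37°C.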

How did the Emax turn out when COc1ccc(Nc2nccc3c2cc(-c2cccc(F)c2)n3C)cc1OC [Compound 208, N-(3,4-dimethoxyphenyl)-2-(3-fluorophenyl)-1-methyl-pyrrolo[3,2-c]pyridin-4-amine] was run?
Its Emax is 30 to 50%.

How did the Emax turn out when Cn1c(-c2cccc(F)c2)nc2cnc(Nc3ccc4c(c3)OCO4)cc21 [Compound 714, N-(1,3-benzodioxol-5-yl)-2-(3-fluorophenyl)-1-methyl-imidazo[4,5-c]pyridin-6-amine] was run?
Its Emax is 50 to 100%.

Which Emax does the source give for CNc1nc2cnc(Nc3ccc(O)cc3)cc2n1-c1cccc(C(F)(F)F)c1 [Compound 541, 4-[[2-(methylamino)-1-[3-(trifluoromethyl)phenyl]imidazo[4,5-c]pyridin-6-yl]amino]phenol] here?
Its Emax is 50 to 100%.

Which Emax does the source give for CNc1nc2cnc(Nc3ccccc3)cc2n1Cc1cccnc1 [Compound 562, N2-methyl-N6-phenyl-1-(3-pyridylmethyl)imidazo[4,5-c]pyridine-2,6-diamine] here?
The Emax was 30 to 50%.

With CNc1nc2cnc(Nc3ccc(OC)nc3)cc2n1-c1cc(OC)c(OC)c(OC)c1 [Compound 488, N6-(6-methoxy-3-pyridyl)-N2-methyl-1-(3,4,5-trimethoxyphenyl)imidazo[4,5-c]pyridine-2,6-diamine] as the compound, how does the Emax read?
The Emax was 50 to 100%.

With CN(C)C(=O)c1ccc(-c2cc3cnc(Nc4cccc(S(C)(=O)=O)c4)cc3[nH]2)cc1 [Compound 30, N,N-dimethyl-4-[6-(3-methylsulfonylanilino)-1H-pyrrolo[3,2-c]pyridin-2-yl]benzamide] as the compound, how does the Emax read?
Its Emax is 50 to 100%.

With CC(=O)Nc1ccc(Nc2nccc3c2cc(-c2ccc(C(=O)N(C)C)cc2)n3C)cc1 [Compound 211, 4-[4-(4-acetamidoanilino)-1-methyl-pyrrolo[3,2-c]pyridin-2-yl]-N,N-dimethyl-benzamide] as the compound, how does the Emax read?
The Emax was 30 to 50%.

For CN(C)C(=O)c1ccc(-c2cc3cnc(Nc4cccc(Cl)c4)cc3[nH]2)cc1 [Compound 23, 4-[6-(3-chloroanilino)-1H-pyrrolo[3,2-c]pyridin-2-yl]-N,N-dimethyl-benzamide], which Emax is on record?
The Emax was 30 to 50%.

With COc1cc(Nc2cc3c(cn2)nc(Cc2ccccc2)n3C)cc(OC)c1OC [Compound 699, 2-benzyl-1-methyl-N-(3,4,5-trimethoxyphenyl)imidazo[4,5-c]pyridin-6-amine] as the compound, how does the Emax read?
Its Emax is 50 to 100%.

COc1ccc(-c2cc3c(cn2)nc(NCc2ccccc2F)n3C)cc1OC [Compound 865, 6-(3,4-dimethoxyphenyl)-N-[(2-fluorophenyl)methyl]-1-methyl-imidazo[4,5-c]pyridin-2-amine] was tested. Which Emax did it give?
The Emax was 30 to 50%.

For CNc1nc2cnc(Nc3cccc(C(C)=O)c3)cc2n1Cc1ccc(OC)c(OC)c1 [Compound 673, 1-[3-[[1-[(3,4-dimethoxyphenyl)methyl]-2-(methylamino)imidazo[4,5-c]pyridin-6-yl]amino]phenyl]ethanone], which Emax is on record?
The Emax was 50 to 100%.

For COc1ccc(CNc2nccc3c2ncn3Cc2ccccc2)cc1 [Compound 455, 1-benzyl-N-[(4-methoxyphenyl)methyl]imidazo[4,5-c]pyridin-4-amine], which Emax is on record?
The Emax was 0 to 30%.

With COc1ccc(-c2nc3c(Nc4cccc(N(C)C)c4)nccc3[nH]2)cc1OC [Compound 343, N1-[2-(3,4-dimethoxyphenyl)-1H-imidazo[4,5-c]pyridin-4-yl]-N3,N3-dimethyl-benzene-1,3-diamine] as the compound, how does the Emax read?
Its Emax is 50 to 100%.

How did the Emax turn out when COc1ccc(Nc2nccc3[nH]c(-c4ccc5c(c4)OCCO5)nc23)cc1OC [Compound 411, 2-(2,3-dihydro-1,4-benzodioxin-6-yl)-N-(3,4-dimethoxyphenyl)-1H-imidazo[4,5-c]pyridin-4-amine] was run?
Its Emax is 50 to 100%.

Which Emax does the source give for Cn1cncc1-c1cc2cnc(Nc3cccc(Cl)c3)cc2[nH]1 [Compound 103, N-(3-chlorophenyl)-2-(3-methylimidazol-4-yl)-1H-pyrrolo[3,2-c]pyridin-6-amine] here?
The Emax was 30 to 50%.

CNc1nc2cnc(Nc3ccc(C(N)=O)cc3)cc2n1Cc1ccc(OC)c(OC)c1 [Compound 664, 4-[[1-[(3,4-dimethoxyphenyl)methyl]-2-(methylamino)imidazo[4,5-c]pyridin-6-yl]amino]benzamide] was tested. Which Emax did it give?
The Emax was 50 to 100%.

How did the Emax turn out when CC(=O)c1cccc(Nc2cc3c(cn2)cc(-c2cccnc2)n3C)c1 [Compound 97, 1-[3-[[1-methyl-2-(3-pyridyl)pyrrolo[3,2-c]pyridin-6-yl]amino]phenyl]ethanone] was run?
The Emax was 30 to 50%.

With Cn1c(Nc2ccccc2)nc2cnc(Nc3ccncc3)cc21 [Compound 636, 1-methyl-N2-phenyl-N6-(4-pyridyl)imidazo[4,5-c]pyridine-2,6-diamine] as the compound, how does the Emax read?
Its Emax is 50 to 100%.

For COc1ccc(Nc2cc3c(cn2)ncn3C)c(OC)c1 [Compound 727, N-(2,4-dimethoxyphenyl)-1-methyl-imidazo[4,5-c]pyridin-6-amine], which Emax is on record?
The Emax was 50 to 100%.

With CNc1nc2cnc(Nc3ccc4c(c3)OCCO4)cc2n1CC1CC1 [Compound 570, 1-(cyclopropylmethyl)-N6-(2,3-dihydro-1,4-benzodioxin-6-yl)-N2-methyl-imidazo[4,5-c]pyridine-2,6-diamine] as the compound, how does the Emax read?
Its Emax is 30 to 50%.

CNc1nc2cnc(-c3cccc(C(=O)NCCN(C)C)c3)cc2n1-c1cccc(F)c1 [Compound 771, N-(2-dimethylaminoethyl)-3-[1-(3-fluorophenyl)-2-(methylamino)imidazo[4,5-c]pyridin-6-yl]benzamide] was tested. Which Emax did it give?
The Emax was 0 to 30%.

With CC(C)Oc1cccc(Nc2cc3[nH]c(-c4ccccn4)cc3cn2)c1 [Compound 73, N-(3-isopropoxyphenyl)-2-(2-pyridyl)-1H-pyrrolo[3,2-c]pyridin-6-amine] as the compound, how does the Emax read?
Its Emax is 50 to 100%.

With Cn1c(-c2cccnc2)cc2c(Nc3cccc(NS(C)(=O)=O)c3)nccc21 [Compound 244, N-[3-[[1-methyl-2-(3-pyridyl)pyrrolo[3,2-c]pyridin-4-yl]amino]phenyl]methanesulfonamide] as the compound, how does the Emax read?
Its Emax is 50 to 100%.

With Cn1c(-c2cccc(Cl)c2)cc2c(Nc3ccncn3)nccc21 [Compound 316, 2-(3-chlorophenyl)-1-methyl-N-pyrimidin-4-yl-pyrrolo[3,2-c]pyridin-4-amine] as the compound, how does the Emax read?
Its Emax is 30 to 50%.

With CNc1nc2cnc(Nc3ccc(OC)cc3OC)cc2n1-c1cc(OC)c(OC)c(OC)c1 [Compound 486, N6-(2,4-dimethoxyphenyl)-N2-methyl-1-(3,4,5-trimethoxyphenyl)imidazo[4,5-c]pyridine-2,6-diamine] as the compound, how does the Emax read?
The Emax was 30 to 50%.

Which Emax does the source give for COc1ccc(-c2nc3cnc(Nc4cc(OC)c(OC)c(OC)c4)cc3n2C)cc1OC [Compound 716, 2-(3,4-dimethoxyphenyl)-1-methyl-N-(3,4,5-trimethoxyphenyl)imidazo[4,5-c]pyridin-6-amine] here?
Its Emax is 50 to 100%.

How did the Emax turn out when CNc1nc2cnc(Nc3ccc(NC(C)=O)cc3)cc2n1-c1cc(OC)c(OC)c(OC)c1 [Compound 483, N-[4-[[2-(methylamino)-1-(3,4,5-trimethoxyphenyl)imidazo[4,5-c]pyridin-6-yl]amino]phenyl]acetamide] was run?
Its Emax is 50 to 100%.

With COc1ccc(Nc2cc3[nH]c(-c4cncn4C)cc3cn2)cc1OC [Compound 102, N-(3,4-dimethoxyphenyl)-2-(3-methylimidazol-4-yl)-1H-pyrrolo[3,2-c]pyridin-6-amine] as the compound, how does the Emax read?
The Emax was > 100%.

With Cn1c(-c2ccsc2)cc2c(Nc3cccc(NS(C)(=O)=O)c3)nccc21 [Compound 286, N-[3-[[1-methyl-2-(3-thienyl)pyrrolo[3,2-c]pyridin-4-yl]amino]phenyl]methanesulfonamide] as the compound, how does the Emax read?
Its Emax is 50 to 100%.

How did the Emax turn out when COc1cc(Nc2cc3c(cn2)nc(C)n3C)cc(OC)c1OC [Compound 697, 1,2-dimethyl-N-(3,4,5-trimethoxyphenyl)imidazo[4,5-c]pyridin-6-amine] was run?
Its Emax is 50 to 100%.
